# Literature values as cited in patent publication US20040110774A1, “Methods and formulations of using A1 adenosine receptor antagonists and P2x purinoceptor antagonists for the treatment and prevention of immune system disorders” (priority 2001, published 2004).
# How the values were obtained:
# A1 adenosine receptor = target: T1, A1 adenosine receptor (Homo sapiens, UniProt P30542); conditions: in tissues
# T1 sequence (P30542 1-326): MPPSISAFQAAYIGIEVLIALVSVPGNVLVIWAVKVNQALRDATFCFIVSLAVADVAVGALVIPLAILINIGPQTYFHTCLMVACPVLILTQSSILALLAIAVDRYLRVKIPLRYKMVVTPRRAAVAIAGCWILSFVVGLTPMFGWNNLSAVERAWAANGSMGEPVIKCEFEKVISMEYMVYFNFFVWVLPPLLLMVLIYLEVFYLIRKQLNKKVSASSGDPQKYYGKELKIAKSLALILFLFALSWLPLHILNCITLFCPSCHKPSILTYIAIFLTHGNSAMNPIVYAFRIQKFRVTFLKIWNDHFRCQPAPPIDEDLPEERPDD
# RAW 264.7 macrophages = conditions: LPS-stimulated RAW 264.7 macrophages
compound,measurement,setting,value
"CCCn1c(=O)c2[nH]c(C3CCCC3)nc2n(CCC)c1=O [DPCPX, 1,3-dipropyl-8-cyclopentylxanthine]",nonspecific binding,A1 adenosine receptor,less than 1%
"Cc1nc(N=Nc2ccc(S(=O)(=O)O)cc2S(=O)(=O)O)c(COP(=O)(O)O)c(C=O)c1O [PPADS, pyridoxal-phosphate-6-azophenyl-2′,4′-disulphonic acid]",effect of LPS on the expression of iNOS,iNOS,prevent the effect of LPS on the expression of iNOS
"Nc1ncnc2c1ncn2[C@@H](C=O)O[C@@H](C=O)COP(=O)(O)OP(=O)(O)OP(=O)(O)O [o-ATP, Periodate oxidized adenosine 5′-triphosphate]",NF-kappa-B-like binding activity,RAW 264.7 macrophages,inhibit NF-kappa-B-like binding activity
same,effects of LPS on nitric oxide (NO) production,RAW 264.7 macrophages,inhibit the effects of LPS on nitric oxide (NO) production
same,expression of inducible nitric oxide synthase (iNOS),RAW 264.7 macrophages,inhibit the expression of inducible nitric oxide synthase (iNOS)
